Laboratory results reported in patent US7253191B2, “2-thio-substituted imidazole derivatives and the use thereof in the pharmaceutical industry” (Merckle GmbH, priority 2001, dated 2007).

Experiments:
[1] = system: IL-1β; assay: In vitro test of cytokine release: LPS-stimulated human whole blood / PBMCs, IL-1β by ELISA; assay type: cell-based; conditions: Table 1; LPS (E.coli 026:B6) stimulation 4 hours; table does not say whole blood or PBMCs
Description: (§1) They may be administered in one individual dose or in a plurality of doses. The activity spectrum of the compounds as inhibitors of cytokine release was examined using the test systems below, as described by C. Donat and S. Laufer in Arch. Pharm. Pharm. […] 1, 1-40, 2000.
(§2) The reaction is stopped by placing the samples on ice, adding DPBS buffer and then centrifuging at 1000*g for 15 min. The amount of IL-1β and TNFα in the plasma supernatant is then determined by ELISA.
(§3) The cells are washed twice with DPBS buffer, resuspended in macrophage SFM medium and adjusted to a cell count of 1*10^6 cells/ml.
(§4) The reaction is stopped by placing the samples on ice, adding DPBS buffer and then centrifuging at 15 880*g for 12 min. The amount of IL-1β and TNFα in the plasma supernatant is then determined by ELISA.

[2] = system: TNF-α; assay: In vitro test of cytokine release: LPS-stimulated human whole blood / PBMCs, TNFα by ELISA; assay type: cell-based; conditions: Table 1; LPS (E.coli 026:B6) stimulation 4 hours; table does not say whole blood or PBMCs
Description: as §1, §2, §3, §4

- IC50 [1]: 5.8 µM
- IC50 [2]: 38 µM
SMILES: Fc1ccc(-c2[nH]c(=S)n(C3CCN(Cc4ccccc4)CC3)c2-c2ccncc2)cc1 [Example 18]
